Laboratory results: US9445594B2, “Molecules having certain pesticidal utilities, intermediates, compositions, and processes, related thereto” (priority 2014, dated 2016)
Like-named read-outs stand apart in the source and are kept apart here.

What was measured:
Type in all cases: in vivo
[1] = tested on: Yellow Fever Mosquito (Aedes aegypti, AEDSAE) ("YFM"); experiment: Bioassays on YFM, 96-well plate larval assay; conditions: about 1 day-old larvae, from 4000 ppm DMSO master plate diluted, room temperature, scored after 3 days
Procedure: Certain molecules disclosed in this document were tested against YFM using procedures described in the following paragraph. In the reporting of the results, the “YFM Rating Table” was used (See Table Section).
Master plates containing 400 μg of a molecule dissolved in 100 μL of dimethyl sulfoxide (DMSO) (equivalent to a 4000 ppm solution) are used. A master plate of assembled molecules contains 15 μL per well. To this plate, 135 μL of a 90:10 water:acetone mixture is added to each well. A robot (Biomek® NXP Laboratory Automation Workstation) is programmed to dispense 15 μL aspirations from the master plate into an empty 96-well shallow plate (“daughter” plate). There are 6 reps (“daughter” plates) created per master. The created daughter plates are then immediately infested with YFM larvae.
The day before plates are to be treated, mosquito eggs are placed in Millipore water containing liver powder to begin hatching (4 g. into 400 mL). After the daughter plates are created using the robot, they are infested with 220 μL of the liver powder/larval mosquito mixture (about 1 day-old larvae). After plates are infested with mosquito larvae, a non-evaporative lid is used to cover the plate to reduce drying. Plates are held at room temperature for 3 days prior to grading. After 3 days, each well is observed and scored based on mortality.

[2] = tested on: Cabbage Looper (Trichoplusia ni, TRIPNI) ("CL"); experiment: Bioassays on CL, 128-well diet tray assay; conditions: 168 h, read-out: CL % Control (or Mortality) rating
Procedure: (§1) Certain molecules disclosed in this document were tested against BAW, CEW, and CL using procedures described in the following examples. In the reporting of the results, the “BAW, CEW, & CL Rating Table” was used (See Table Section).
Bioassays on CL were conducted using a 128-well diet tray assay. one to five second instar CL larvae were placed in each well (3 mL) of the diet tray that had been previously filled with 1 mL of artificial diet to which 50 μg/cm^2 of the test compound (dissolved in 50 μL of 90:10 acetone-water mixture) had been applied (to each of eight wells) and then allowed to dry. Trays were covered with a clear self-adhesive cover and held at 25° C., 14:10 light-dark for five to seven days. Percent mortality was recorded for the larvae in each well; activity in the eight wells was then averaged. The results are indicated in the table entitled “Table ABC: Biological Results” (See Table Section).

[3] = tested on: Beet Armyworm (Spodoptera exigua, LAPHEG) ("BAW"); experiment: Bioassays on BAW, 128-well diet tray assay; conditions: 168 h, read-out: BAW % Control (or Mortality) rating
Procedure: as §1
Bioassays on BAW were conducted using a 128-well diet tray assay. one to five second instar BAW larvae were placed in each well (3 mL) of the diet tray that had been previously filled with 1 mL of artificial diet to which 50 μg/cm^2 of the test compound (dissolved in 50 μL of 90:10 acetone-water mixture) had been applied (to each of eight wells) and then allowed to dry. Trays were covered with a clear self-adhesive cover and held at 25° C., 14:10 light-dark for five to seven days. Percent mortality was recorded for the larvae in each well; activity in the eight wells was then averaged. The results are indicated in the table entitled “Table ABC: Biological Results” (See Table Section).

[4] = second instar larvae, 50 μg/cm^2 on artificial diet, 25° C., five to seven days, average of eight wells

| Structure (SMILES) | YFM % Control (or Mortality) rating [1] | mortality at 50 µg/cm2 [2, 4] | mortality at 50 µg/cm2 [3, 4] | mortality at 50 µg/cm2 [2] | mortality at 50 µg/cm2 [3] |
| --- | --- | --- | --- | --- | --- |
| Cc1ccc(NC(=O)NCCCCc2ccc(-c3ncn(-c4ccc(OC(F)(F)F)cc4)n3)cc2)cc1 [F99, 1-(p-Tolyl)-3-(4-(4-(1-(4-(trifluoromethoxy)phenyl)-1H-1,2,4-triazol-3-yl)phenyl)butyl)urea] | D (No activity noticed in this bioassay) | 0% | 0 to 50% |  |  |
| FC(F)(F)Oc1ccc(-n2cnc(-c3ccc(NC(=S)Nc4ncccc4-c4cccnc4)cc3)n2)cc1 [F56, 1-([3,3′-Bipyridin]-2-yl)-3-(4-(1-(4-(trifluoromethoxy)phenyl)-1H-1,2,4-triazol-3-yl)phenyl)thiourea] | D (No activity noticed in this bioassay) | 50 to 100% | 0 to 50% |  |  |
| CC(C)c1ccccc1NC(=S)NCc1ccc(-c2ncn(-c3ccc(OC(F)(F)F)cc3)n2)cc1 [F45, 1-(2-isopropylphenyl)-3-(4-(1-(4-(trifluoromethoxy)phenyl)-1H-1,2,4-triazol-3-yl)benzyl)thiourea] | A (80-100) | 50 to 100% | 0 to 50% |  |  |
| CSc1ccccc1-c1ccccc1NC(=S)Nc1ccc(-c2ncn(-c3ccc(OC(F)(F)F)cc3)n2)cc1 [F42, 1-(2′-(Methylthio)-[1,1′-biphenyl]-2-yl)-3-(4-(1-(4-(trifluoromethoxy)phenyl)-1H-1,2,4-triazol-3-yl)phenyl)thiourea] | B (More than 0 - Less than 80) | 50 to 100% | 50 to 100% |  |  |
| CC(C)c1ccccc1NC(=S)NCCCCc1ccc(-c2ncn(-c3ccc(OC(F)(F)F)cc3)n2)cc1 [F88, 1-(2-Isopropylphenyl)-3-(4-(4-(1-(4-(trifluoromethoxy)phenyl)-1H-1,2,4-triazol-3-yl)phenyl)butyl)thiourea] | A (80-100) | 50 to 100% | 50 to 100% |  |  |
| CC(C)c1ccccc1NC(=S)NCCCc1ccc(-c2ncn(-c3ccc(OC(F)(F)F)cc3)n2)cc1 [F76, 1-(2-isopropylphenyl)-3-(3-(4-(1-(4-(trifluoromethoxy)phenyl)-1H-1,2,4-triazol-3-yl)phenyl)propyl)thiourea] | A (80-100) |  |  | 50 to 100% | 50 to 100% |
| O=C(NCCCCc1ccc(-c2ncn(-c3ccc(OC(F)(F)F)cc3)n2)cc1)Nc1cccc(Cl)c1 [F93, 1-(3-Chlorophenyl)-3-(4-(4-(1-(4-(trifluoromethoxy)phenyl)-1H-1,2,4-triazol-3-yl)phenyl)butyl)urea] | D (No activity noticed in this bioassay) | 50 to 100% | 0% |  |  |
| O=C(NCCCc1ccc(-c2ncn(-c3ccc(OC(F)(F)F)cc3)n2)cc1)Nc1ccccc1Cl [F84, 1-(2-Chlorophenyl)-3-(3-(4-(1-(4-(trifluoromethoxy)phenyl)-1H-1,2,4-triazol-3-yl)phenyl)propyl)urea] | B (More than 0 - Less than 80) | 50 to 100% | 50 to 100% |  |  |
| Cc1cccc(NC(=O)NCc2ccc(-c3ncn(-c4ccc(OC(F)(F)F)cc4)n3)cc2)c1 [F108, 1-(m-Tolyl)-3-(4-(1-(4-(trifluoromethoxy)phenyl)-1H-1,2,4-triazol-3-yl)benzyl)urea] | D (No activity noticed in this bioassay) | 0% | 0% |  |  |
| O=C(Nc1ccc(-c2ncn(-c3ccc(OC(F)(F)C(F)(F)F)cc3)n2)cc1)Nc1ccccc1C1CC1 [F15, 1-(2-Cyclopropylphenyl)-3-(4-(1-(4-(perfluoroethoxy)phenyl)-1H-1,2,4-triazol-3-yl)phenyl)urea] | B (More than 0 - Less than 80) | 50 to 100% | 50 to 100% |  |  |
| COc1ccccc1NC(=O)NCCCc1ccc(-c2ncn(-c3ccc(OC(F)(F)F)cc3)n2)cc1 [F81, 1-(2-Methoxyphenyl)-3-(3-(4-(1-(4-(trifluoromethoxy)phenyl)-1H-1,2,4-triazol-3-yl)phenyl)propyl)urea] | B (More than 0 - Less than 80) | 50 to 100% | 50 to 100% |  |  |
| CSc1ccccc1-c1cccnc1NC(=O)Nc1ccc(-c2ncn(-c3ccc(OC(F)(F)F)cc3)n2)cc1 [F59, 1-(3-(2-(Methylthio)phenyl)pyridin-2-yl)-3-(4-(1-(4-(trifluoromethoxy)phenyl)-1H-1,2,4-triazol-3-yl)phenyl)urea] | D (No activity noticed in this bioassay) | 50 to 100% | 50 to 100% |  |  |
| Cc1ccc(NC(=O)NCc2ccc(-c3ncn(-c4ccc(OC(F)(F)F)cc4)n3)cc2)cc1 [F102, 1-(p-Tolyl)-3-(4-(1-(4-(trifluoromethoxy)phenyl)-1H-1,2,4-triazol-3-yl)benzyl)urea] | D (No activity noticed in this bioassay) | 0% | 0% |  |  |
| CC(C)c1ccccc1NC(=O)Nc1ccc(-c2ncn(-c3ccc(OC(F)(F)F)cc3)n2)cc1 [F33, 1-(2-Isopropylphenyl)-3-(4-(1-(4-(trifluoromethoxy)phenyl)-1H-1,2,4-triazol-3-yl)phenyl)urea] | B (More than 0 - Less than 80) | 50 to 100% | 50 to 100% |  |  |
| CC(C)c1ccccc1NC(=O)Nc1ccc(-c2ncn(-c3ccc(OC(F)(F)C(F)(F)F)cc3)n2)cc1 [F54, 1-(2-Isopropylphenyl)-3-(4-(1-(4-(perfluoroethoxy)phenyl)-1H-1,2,4-triazol-3-yl)phenyl)urea] | D (No activity noticed in this bioassay) | 50 to 100% | 50 to 100% |  |  |
| O=C(Nc1ccc(-c2ncn(-c3ccc(OC(F)(F)F)cc3)n2)cc1)Nc1ccccc1Cc1ccccc1 [F51, 1-(2-Benzylphenyl)-3-(4-(1-(4-(trifluoromethoxy)phenyl)-1H-1,2,4-triazol-3-yl)phenyl)urea] | D (No activity noticed in this bioassay) | 0 to 50% | 0 to 50% |  |  |
| O=C(NCCCc1ccc(-c2ncn(-c3ccc(OC(F)(F)F)cc3)n2)cc1)Nc1cccc(Cl)c1 [F85, 1-(3-Chlorophenyl)-3-(3-(4-(1-(4-(trifluoromethoxy)phenyl)-1H-1,2,4-triazol-3-yl)phenyl)propyl)urea] | A (80-100) | 50 to 100% | 50 to 100% |  |  |
| O=C(NCc1ccc(-c2ncn(-c3ccc(OC(F)(F)F)cc3)n2)cc1)Nc1cccc(Cl)c1 [F103, 1-(3-Chlorophenyl)-3-(4-(1-(4-(trifluoromethoxy)phenyl)-1H-1,2,4-triazol-3-yl)benzyl)urea] | A (80-100) | 50 to 100% | 0 to 50% |  |  |
